Key:
[1] = test system: adult zebrafish caudal fin regeneration; experiment: Adult zebrafish caudal fin regeneration study; assay type: in vivo
Source text: The fish were transferred back to the tanks and were continuously exposed to vehicle or Beclomethasone until the end of the study. The exposure solutions were changed daily. The positive “hits” were of different chemical classes and using structure function analysis, a major cluster of compounds was identified as glucocorticoids (5 of the “hit” compounds). […] We selected glucocorticoids for further studies since this was the largest cluster of “hits”. […] This characteristic morphology occurs because the tissue lateral to the amputation plane continues to grow and partially collapses around the amputation plane. Since the adult fin regeneration model is more widely studied, it was important to determine if chemical “hits” identified in the larval screen would be predictive for the adult fin regeneration responses. Therefore, the regeneration response to glucocorticoids exposure on fin regeneration was also assessed in adult zebrafish.

[2] = test system: zebrafish larvae caudal fin regeneration; experiment: Larval fin regeneration with exposure in distinct time windows post amputation; assay type: in vivo; conditions: 1 μM
Method: Once candidate agents have been determined to affect regeneration, a number of studies may be done. In one example, the IC50 of the candidate agent is determined using methods known in the art. In another example, a secondary screen is performed to aid in identification of a target of the candidate agent. This may be accomplished in many ways. For example, after amputation, the fin undergoes several stages of regeneration. In a first stage, cells migrate into the epithelial wound cap. In a second stage, the blastema differentiates within the wound cap. In a final stage, cells proliferate, leading to outgrowth of the new fin. Thus, by adding the candidate agent to the amputated teleost for short durations of time at different, defined, times after amputation, it is possible to identify which regenerative stage or stages are sensitive to the candidate agent. Specifically, agents present for 0 to 4 hours post amputation (hpa) would preferentially target epithelial wound cap formation. Agents present between 4 and 12 hpa may specifically target blastema formation, and agents present between 12 and 24 hpa may preferentially target cellular differentiation. Finally, agents present between 24 hpa and 72 hpa would target the cellular proliferation stage.
Fertilized eggs were obtained from AB strain zebrafish (University of Oregon, Eugene, Oreg.) for all the experiments. […]

Compound: CCC(=O)OCC(=O)[C@@]1(OC(=O)CC)[C@@H](C)C[C@H]2[C@@H]3CCC4=CC(=O)C=C[C@]4(C)[C@@]3(Cl)[C@@H](O)C[C@@]21C [Beclomethasone, Beclomethasone dipropionate]
- adult caudal fin regeneration ([1]; 0.005 mg/L waterborne, one day pre-exposure then continuous exposure): completely inhibited
- new tissue in the adult fin ([1]; at 5 dpa): essentially no new tissue
- larval fin regeneration, exposure for four hours immediately following amputation ([2]; 0-4 hpa): failed to regenerate
- larval fin regeneration, exposure beginning at 4 hpa ([2]; from 4 hpa continuously until 3 dpa): completely regenerated their fins
